# Laboratory results as given in patent publication US20240000724A1, “Compositions and Methods for Treatment or Prevention of Oral Mucositis” (PATHWAYS BIOSCIENCE, LLC, priority 2015, published 2024).
# Read-outs that look alike come from different tables or passages of the source.
# Tests used:
# [1] = tested on: Nrf2 signaling pathway (HepG2 cells); experiment: Short exposure time course of Nrf2 activation in HepG2 Nrf2-driven promoter luciferase reporter cells; format: cell-based, human; details: 5 minutes exposure, washed off, read 24 hours later; compared with 1 or 2 hours exposure
# Protocol: As an example of the short time course of PB201 exposure needed to activate the Nrf2 signaling pathway, HepG2 cells stably transfected with a Nrf2-driven promoter, luciferase reporter construct were treated with PB201 for 5 minutes, 1 hour, or 2 hours, then the PB201 was removed and washed off the cells, then 24 hours later the luciferase levels were measured by chemiluminescence to assay for Nrf2 activation.
# HepG2 cells = experiment: Affymetrix PrimeView gene expression array of PB201-treated HepG2 cells; format: cell-based; details: Homo sapiens, 1.5 micrograms/mL, 18 hours
# Protocol: As an example of the cell protective mechanisms induced by PB201 treatment, gene upregulation in cells treated with PB201 was examined. Briefly, cultured HepG2 liver cells were treated with PB201 at 1.5 micrograms/mL concentration for 18 hours, then total RNA was extracted from the HepG2 cells by using the RNeasy Total RNA Isolation Kit (QIAGEN Inc. Valencia, California, USA). The concentration of each sample was determined based on the absorbance at 260 nm (A260). The purity of each sample was determined based on the ratio of A260 to A280. A range of 1.9-2.1 was considered adequately pure. The integrity of Total RNA samples was verified by Agilent 2200 Tape Station. Total RNA (250 ng) was converted to double-stranded cDNA (ds-cDNA) by using the cDNA synthesis kit (Affymetrix). An oligo-dT primer containing a T7 RNA polymerase promoter was utilized. The ds-cDNA was then purified and recovered by using purification beads (Affymetrix). Next, in vitro transcription was performed to generate biotin-labeled cRNA using a RNA Transcript Labeling Kit (Affymetrix). Biotin-labeled cRNA was purified using an RNeasy affinity column (Qiagen).
# To ensure optimal hybridization to the oligonucleotide array, the cRNA was fragmented. Fragmentation was performed such that the cRNA fragments are between 50-200 bases in length by incubating the cRNA at 94° C. for 35 min in a fragmentation buffer. The sample was then added to a hybridization solution containing 100 mM IVIES, 1 M Na+, and 20 mM EDTA in the presence of 0.01% Tween 20. The final concentration of the fragmented cRNA was […]. Hybridization was performed by incubating 200 uL of the sample to the Affymetrix GeneChip® PrimeView™ human gene expression array (Affymetrix Inc., Santa Clara, California, USA) at 45° C. for 16 hours using a GeneChip® Hybridization Oven 640 (Affymetrix).
# After hybridization, the hybridization solutions were removed and the arrays were washed and stained with Streptavidin-phycoerythrin using a GeneChip® Fluidics Station 450 (Affymetrix). Arrays were read at a resolution of 2.5 to 3 microns using the GeneChip Scanner 3000 (Affymetrix). Each gene was represented by the use of −11 probes per transcript and many control probes. The Command Console GeneChip software program was used to determine the intensity of expression for all genes on the array. For this experiment, fold-induction of genes by PB201 treatment of HepG2 cells was calculated compared to the average intensity observed in control HepG2 cells in culture solution without any added stimulus such as PB201.
# [2] = Aqueous solubility / visual dissolution in PBS with and without HPBCD; format: physicochemical; details: for Aqueous solubility alone: water or aqueous solutions, no solubility enhancer
# Protocol: In this example, approaches were used to increase the aqueous distribution of the otherwise relatively insoluble 1,3-diphenyl-1,3-propanedione (DBM) by adding 2-hydroxypropyl beta-cyclodextrin (HPBCD) at a molar ratio (DBM:HPBCD) of 1:3. […] To verify its presence in the aqueous solutions, the samples were tested for activity of PB201 using HepG2-ARE promoter/reporter cells, which are responsive to PB201 and other Nrf2-activators by promoting the expression of luciferase.
structure (smiles),measurement,setting,value
"O=C(CC(=O)c1ccccc1)c1ccccc1 [PB201, 1,3-diphenyl-1,3-propanedione]",Nrf2 response (luciferase chemiluminescence),[1],strong Nrf2 response similar to 1 or 2 hours of exposure
same,fold induction at 1.5 µg/mL,"HepG2 cells; vs control HepG2, read-out: Fold induction by PB201: AGPAT9",2.46
same,fold induction at 1.5 µg/mL,"HepG2 cells; vs control HepG2, read-out: Fold induction by PB201: AKR1B10///AKR1B15",5.85
same,fold induction at 1.5 µg/mL,"HepG2 cells; vs control HepG2, read-out: Fold induction by PB201: AKR1B15",4.1
same,fold induction at 1.5 µg/mL,"HepG2 cells; vs control HepG2, read-out: Fold induction by PB201: AKR1C1",4.97
same,fold induction at 1.5 µg/mL,"HepG2 cells; vs control HepG2, read-out: Fold induction by PB201: AKR1C2///LOC100653286",6.56
same,fold induction at 1.5 µg/mL,"HepG2 cells; vs control HepG2, read-out: Fold induction by PB201: AQP3",3
same,fold induction at 1.5 µg/mL,"HepG2 cells; vs control HepG2, read-out: Fold induction by PB201: BHMT2",3.8
same,fold induction at 1.5 µg/mL,"HepG2 cells; vs control HepG2, read-out: Fold induction by PB201: CCPG1///DYX1C1-CCPG1",2.51
same,fold induction at 1.5 µg/mL,"HepG2 cells; vs control HepG2, read-out: Fold induction by PB201: CYP4F3",2.46
same,fold induction at 1.5 µg/mL,"HepG2 cells; vs control HepG2, read-out: Fold induction by PB201: CYP4F11",4.43
same,fold induction at 1.5 µg/mL,"HepG2 cells; vs control HepG2, read-out: Fold induction by PB201: EID3",4.18
same,fold induction at 1.5 µg/mL,"HepG2 cells; vs control HepG2, read-out: Fold induction by PB201: FOS",2.91
same,fold induction at 1.5 µg/mL,"HepG2 cells; vs control HepG2, read-out: Fold induction by PB201: FTH1",2.62
same,fold induction at 1.5 µg/mL,"HepG2 cells; vs control HepG2, read-out: Fold induction by PB201: GCLM",4.03
same,fold induction at 1.5 µg/mL,"HepG2 cells; vs control HepG2, read-out: Fold induction by PB201: GLA",2.59
same,fold induction at 1.5 µg/mL,"HepG2 cells; vs control HepG2, read-out: Fold induction by PB201: GSTA1///GSTA2",6.99
same,fold induction at 1.5 µg/mL,"HepG2 cells; vs control HepG2, read-out: Fold induction by PB201: HMOX1",3.64
same,fold induction at 1.5 µg/mL,"HepG2 cells; vs control HepG2, read-out: Fold induction by PB201: KYNU",3.9
same,fold induction at 1.5 µg/mL,"HepG2 cells; vs control HepG2, read-out: Fold induction by PB201: MLLT11",2.71
same,fold induction at 1.5 µg/mL,"HepG2 cells; vs control HepG2, read-out: Fold induction by PB201: OSGIN1",3.18
same,fold induction at 1.5 µg/mL,"HepG2 cells; vs control HepG2, read-out: Fold induction by PB201: PANX2",2.88
same,fold induction at 1.5 µg/mL,"HepG2 cells; vs control HepG2, read-out: Fold induction by PB201: PTGR1",4.79
same,fold induction at 1.5 µg/mL,"HepG2 cells; vs control HepG2, read-out: Fold induction by PB201: SLC16A6",3.8
same,fold induction at 1.5 µg/mL,"HepG2 cells; vs control HepG2, read-out: Fold induction by PB201: SQSTM1",2.84
same,fold induction at 1.5 µg/mL,"HepG2 cells; vs control HepG2, read-out: Fold induction by PB201: SRXN1",2.8
same,fold induction at 1.5 µg/mL,"HepG2 cells; vs control HepG2, read-out: Fold induction by PB201: TEX19",3
same,fold induction at 1.5 µg/mL,"HepG2 cells; vs control HepG2, read-out: Fold induction by PB201: TRPV3",3.51
same,fold induction at 1.5 µg/mL,"HepG2 cells; vs control HepG2, read-out: Fold induction by PB201: TUBA4A",2.55
same,Visual dissolution,[2]; 5 mg in 1 mL PBS with 93 mg HPBCD (3:1 mole ratio),visually dissolved
same,Change of solubility in aqueous solution by 2-hydroxypropyl beta-cyclodextrin,"[2]; HPBCD added, DBM:HPBCD 1:3",greatly increased
same,Aqueous solubility alone,[2],nearly insoluble
same,Aqueous solubility alone,"[2]; listed as 1,3-diphenyl-1,3-propanedione",low aqueous solubility
